Data set [1] is classed as physicochemical. The source says:
|Thermal stability data: for crystalline calcium |pseudomate dihydrate, amorphous calcium pseudomonate |Percentage |Initial |Potency |after |Storage ** | ** Expressed as percentage of initial purity.

Data set [2] is described as follows: Water solubility. The class given is physicochemical. The settings on record: amorphous form.

Structures can show the parent of a compound that is named as a salt. Where two headings read alike, the source gives them in different places.

Consider `CC(=CC(=O)OCCCCCCCCC(=O)O)CC1OCC(CC2OC2C(C)C(C)O)C(O)C1O` (stereo not shown) [crystalline calcium pseudomonate, calcium pseudomonate], for which the “thermal stability (in words)” value in data set [1] is recorded as “outstandingly good thermal stability”.

On to `CC(=CC(=O)OCCCCCCCCC(=O)O)CC1OCC(CC2OC2C(C)C(C)O)C(O)C1O` (stereo not shown) [Anhydrous Amorphous Calcium Salt, Amorphous Anhydrous Calcium Pseudomonate A], for which the “water solubility (in words)” value in data set [2] is reported as “sparingly water soluble”. Besides, the “thermal stability (in words)” value in data set [1] is “poor thermal stability”. Also, the “Percentage Initial Potency after Storage” value was found to be 29% in data set [1] (192 h) and 83.3% in data set [1] (240 h).

Turning to `C/C(=C\C(=O)OCCCCCCCCC(=O)O)C[C@@H]1OC[C@H](C[C@@H]2O[C@H]2[C@@H](C)[C@H](C)O)[C@@H](O)[C@H]1O` [Pseudomonic Acid, Pseudomonic acid], the entries for the “Percentage Initial Potency after Storage” value in data set [1] (192 h) and in data set [1] (240 h) were 0% and 77.9%, respectively.

Values taken from patent publication US5191093A, “Process for preparing crystalline calcium pseudomonate” (Beecham Group p.l.c., priority 1990, dated 1993).
